Source: patent US7862837B2, “Herbal composition” (Piramal Life Sciences Limited, priority 2006, dated 2011)
≈ marks a conversion by molar mass, not a printed value.

How the values were obtained:
TNF-α = assay: LPS-induced TNF-α production in hPBMCs (primary screening, ELISA); type: cell-based, human; settings: LPS-stimulated hPBMCs
Method: (§1) TNF-α production by lipopolysaccharides (LPS) in hPBMCs was measured according to the method described by Jansky, L. et al (Physiol. Res. 52: 593-598, (2003)). Blood was collected from healthy donors into Ethylene diamine tetra acetic acid Potassium salt (Potassium EDTA) vacutainer tubes (BD vacutainer). The PBMCs were isolated using gradient centrifugation in Histopaque-1077 solution (Sigma). Isolated PBMCs were suspended in Roswell Park Memorial Institute (RPMI) 1640 culture medium (Gibco BRL, Pasley, UK) containing 10% fetal bovine serum (FBS) (Hyclone, Utah, USA), 100 U/ml penicillin (Sigma Chemical Co. St Louis, Mo.) and 100 μg/ml streptomycin (Sigma Chemical Co. St Louis, Mo.). The cell concentration was adjusted to 1×10^6 cells/ml. The viability as determined by trypan blue dye exclusion was uniformly ≧98%. The cell suspension (100 μl) was added to the wells of a 96-well culture plate. Following cell plating, 79 μl of the culture medium and 1 μl of eight different concentrations of the test compounds (final concentration 0.03, 0.1, 0.3, 1, 3, 10, 30, 100 μg/ml) dissolved in dimethylsulfoxide, (DMSO) Sigma, Mo., USA) were added to the cells. The final concentration of DMSO was adjusted to 0.5%. The vehicle (0.5% DMSO) was used as control. Rolipram (100, 300 μM) was used as a standard. The plates were incubated for 30 min at 37° C. in an atmosphere of 5% carbon dioxide (CO2). Finally, 20 μl (10 μg/ml) per well of LPS, (Escherchia coli 0127:B8, Sigma Chemical Co., St. Louis, Mo.) was added, for a final concentration of 1 μg/ml. The plates were incubated at 37° C. for 5 h in an atmosphere of 5% carbon dioxide (CO2). To assess the cytotoxic effect of the plant extracts, the cellular viability test was performed using 3-(4,5-dimethylthiazol-2-yl)-5-(3-carboxymethoxyphenyl)-2-(4-sulfonyl)-2H-tetrazolium) (MTS) reagent after 5 h of incubation. Supernatants were harvested and assayed for TNF-α by ELISA as described by the manufacturer (OptiElA ELISA sets, BD Biosciences, Pharmingen). […] Percent cytotoxicity of the test compound compared to control is evaluated.

[1] = system: human peripheral blood mononuclear cells; assay: Cellular viability test (MTS) in hPBMCs; type: cell-based
Method: as §1, with “standard.” for “standard. The plates were incubated for 30 min at 37° C. in an atmosphere of 5% carbon dioxide (CO2). Finally, 20 μl (10 μg/ml) per well of LPS, (Escherchia coli 0127:B8, Sigma Chemical Co., St. Louis, Mo.) was added, for a final concentration of 1 μg/ml. The plates were incubated at 37° C. for 5 h in an atmosphere of 5% carbon dioxide (CO2). To assess the cytotoxic effect of the plant extracts, the cellular viability test was performed using 3-(4,5-dimethylthiazol-2-yl)-5-(3-carboxymethoxyphenyl)-2-(4-sulfonyl)-2H-tetrazolium) (MTS) reagent after 5 h of incubation. Supernatants were harvested and assayed for TNF-α by ELISA as described by the manufacturer (OptiElA ELISA sets, BD Biosciences, Pharmingen).”

interleukin-1β (IL-1β) = assay: IL-1β released by LPS-stimulated hPBMCs (ELISA); type: cell-based, human
Method: TNF-α production by lipopolysaccharides (LPS) in hPBMCs was measured according to the method described by Jansky, L. et al (Physiol. Res. 52: 593-598, (2003)). Blood was collected from healthy donors into Ethylene diamine tetra acetic acid Potassium salt (Potassium EDTA) vacutainer tubes (BD vacutainer). The PBMCs were isolated using gradient centrifugation in Histopaque-1077 solution (Sigma). Isolated PBMCs were suspended in Roswell Park Memorial Institute (RPMI) 1640 culture medium (Gibco BRL, Pasley, UK) containing 10% fetal bovine serum (FBS) (Hyclone, Utah, USA), 100 U/ml penicillin (Sigma Chemical Co. St Louis, Mo.) and 100 μg/ml streptomycin (Sigma Chemical Co. St Louis, Mo.). The cell concentration was adjusted to 1×10^6 cells/ml. The viability as determined by trypan blue dye exclusion was uniformly ≧98%. The cell suspension (100 μl) was added to the wells of a 96-well culture plate. […] Percent cytotoxicity of the test compound compared to control is evaluated.
The effect of the plant extract on the proinflammatory cytokines: interleukin-1β (IL-1β), interleukin-6 (IL-6) and interleukin-8 (IL-8) was measured using the supernatants generated in the primary screening assay. […]

| IC50, TNF-α inhibition (TNF-α) | IC50 against IL-1 (interleukin-1β (IL-1β)) | SMILES | inhibition at 100 µM (TNF-α; Homo sapiens, 100 μM, read-out: % Inhibition of TNF-α release) | inhibition at 300 µM (TNF-α; Homo sapiens, 300 μM, read-out: % Inhibition of TNF-α release) | % Toxicity 5 h ([1]; 100 μM) | % Toxicity 5 h ([1]; 300 μM) |
| --- | --- | --- | --- | --- | --- | --- |
| – | – | COc1ccc(C2CNC(=O)C2)cc1OC1CCCC1 (stereo not drawn) [Rolipram] | 100% | 100% | 2% | 10% |
| 5.9 µg/mL (≈ 18.5 µM) | 0.4 µg/mL (≈ 1.26 µM) | CC1=CCCC2C1(C)CCC(C)C2(C)CCC1=CC(=O)OC1O (stereo not drawn) [Compound 1, 16-hydroxycleroda-3,13(14)-dien-15,16-olide] | – | – | – | – |
